# Reference: patent US20240374524A1, “INCREASING PERMEATION FOR PRE-GASTRIC ABSORPTION OF ACTIVE PHARMACEUTICAL INGREDIENTS” (Catalent U.K. Swindon Zydis Limited, priority 2023, published 2024)
# “Also recorded” adds a separate entry of the source. Read-outs that look alike come from different tables or passages of the source.
# Columns and labels:
# [1] = cited from earlier work; for HLB value: hydrophilic-lipophilic balance of surfactant
# TR146 buccal cell line [2] = assay: Permeability of Famotidine/permeation agent binary mixes, TR146 cells on Transwell inserts
# TR146 buccal cell line [3] = assay: Permeability of Atenolol/permeation agent binary mixes (Table 11), TR146 cells on Transwell inserts; details: surfactants 1:1 molar ratio, PF127 and bile salt 2×CMC, citric acid 0.37-1 mg/ml
# TR146 buccal cell line [4] = assay: Pre-formulation permeability of Carvedilol/permeation agent binary mixes, TR146 cells on Transwell inserts
# TR146 buccal cell line [5] = assay: Pre-formulation permeability of Piroxicam & permeation agent binary mixtures, TR146 cells on Transwell inserts; details: for % Cumulative Permeability (n = 3) 1 min / % Cumulative Permeability (n = 3) 2 min / % Cumulative Permeability (n = 3) 5 min / % Cumulative Permeability (n = 3) 15 min / % Cumulative Permeability (n = 3) 20 min / % Cumulative Permeability (n = 3) 30 min: Piroxicam 0.35 mg in donor
# TR146 buccal cell line [6] = assay: Permeability of reconstituted Piroxicam freeze-dried ODT, TR146 cells on Transwell inserts; format: in vitro ADME
# [7] = Measured pH of API/permeation agent mixtures and of dispersed ODTs; format: physicochemical
# [8] = Theoretical percent ionized and un-ionized API at sample pH (Henderson-Hasselbach equation); format: physicochemical; details: for Calculated % ionized / Calculated % unionized: Piroxicam at sample pH
# TR146 buccal cell line [9] = details: human, 1.74 mg/ml, pH 7
# [10] = Physicochemical properties of model APIs and permeation agents (solubility, log P, pKa, HLB)
# [11] = agent at 1:1 molar ratio to Piroxicam, CA after 20 and 30 minutes
# [12] = agent at 1:1 molar ratio to Piroxicam, at 30 minutes
# [13] = Piroxicam 0.7 mg/ml binary mixtures in distilled water, ^a after adjustment with 0.1M HCl
compound,measurement,setting,value
COc1ccccc1OCCNCC(O)COc1cccc2[nH]c3ccccc3c12 (stereo not shown) [Carvedilol],water solubility,[1],4.44 µg/mL
"CCCCCCCCCCCCO[C@@H]1O[C@H](CO)[C@@H](O[C@H]2O[C@H](CO)[C@@H](O)[C@H](O)[C@H]2O)[C@H](O)[C@H]1O [DDM, Dodecyl-B-D-Maltoside]",HLB value,[1],13.5
same,difference in Famotidine permeability vs control,"TR146 buccal cell line [2]; 1:1 molar ratio, at the 20 and 30 minute marks",no significant difference
same,fold increase in Famotidine permeability vs control,"TR146 buccal cell line [2]; 1:1 molar ratio, first 5 through 15 minutes",3 fold
same,effect on Atenolol permeability vs control,TR146 buccal cell line [3],no statistically significant difference
same,effect on Carvedilol permeability vs control,"TR146 buccal cell line [4]; PF127 at 2×CMC, other surfactants at 1:1 molar ratio",No significant effect
same,effect on Piroxicam permeability vs control,TR146 buccal cell line [5]; [11],increased
same,fold increase in Piroxicam percentage cumulative permeability vs control,TR146 buccal cell line [5]; [12],2.6 fold
same,percentage cumulative permeability of Piroxicam,TR146 buccal cell line [5]; [12],25.60%
CN1C(C(=O)Nc2ccccn2)=C(O)c2ccccc2S1(=O)=O [Piroxicam],pKa,[1],5.1
same,water solubility,[1],143 µg/mL
"CCCCCCCCCCCCOS(=O)(=O)[O-].[Na+] [SLS, Sodium Lauryl Sulfate]",effect on permeability of Piroxicam ODT vs control,TR146 buccal cell line [6]; 0.69% w/w and 3.49% w/w (PXM:SLS 5:1 and 1:1),increased
same,permeability of 3.49% w/w sample compared to 0.69% w/w sample,TR146 buccal cell line [6]; Piroxicam ODT,marginally higher but statistically significant increase
same,HLB value,[1],40
same,effect on Atenolol permeability vs control,TR146 buccal cell line [3],non-statistically significant increase
same,effect on Piroxicam permeability vs control,TR146 buccal cell line [5]; [11],increased
"CC(C)NCC(O)COc1ccc(CC(N)=O)cc1 (stereo not shown) [Sample 1ATL, Atenolol]",pH,"[7]; Atenolol 1.74 mg/ml binary mixes in distilled water, ^a after 0.1M NaOH",10.58
same,pH,[7]; measured pH of Atenolol (1.74 mg/ml)/permeation agent mixture in distilled water,10.58
same,% ionised,[8]; Atenolol at sample pH,9.48%
same,% unionised,[8]; Atenolol at sample pH,90.52%
"COc1ccccc1OCCNCC(O)COc1cccc2[nH]c3ccccc3c12 (stereo not shown) [Sample 1CAV, Carvedilol]",pH,"[7]; Carvedilol 1.74 mg/ml binary mixes in water, ^a after 0.1M NaOH, ^b after 0.1M HCL",7
same,Calculated % ionised,[8]; Carvedilol at sample pH,86.32%
same,Calculated % unionised,[8]; Carvedilol at sample pH,13.68%
same,% Cumulative Permeability (n = 3) 1 min,TR146 buccal cell line [9]; 1 min,0.02%
same,% Cumulative Permeability (n = 3) 2 min,TR146 buccal cell line [9]; 2 min,0.03%
same,% Cumulative Permeability (n = 3) 5 min,TR146 buccal cell line [9]; 5 min,0.03%
same,% Cumulative Permeability (n = 3) 15 min,TR146 buccal cell line [9]; 15 min,0.10%
same,% Cumulative Permeability (n = 3) 20 min,TR146 buccal cell line [9]; 20 min,0.13%
same,% Cumulative Permeability (n = 3) 30 min,TR146 buccal cell line [9]; 30 min,0.18%
"NC(N)=Nc1nc(CSCCC(N)=NS(N)(=O)=O)cs1 [Sample 1FAM, Famotidine]",Calculated % ionised,[8]; Famotidine at sample pH,1.53%
same,Calculated % unionised,[8]; Famotidine at sample pH,98.47%
same,% Cumulative Permeability (n = 3) 1 min,"TR146 buccal cell line [2]; Famotidine […], 0.5 ml in donor, 1 min",0.32%
same,% Cumulative Permeability (n = 3) 2 min,"TR146 buccal cell line [2]; Famotidine […], 0.5 ml in donor, 2 min",0.84%
same,% Cumulative Permeability (n = 3) 5 min,"TR146 buccal cell line [2]; Famotidine […], 0.5 ml in donor, 5 min",2.09%
same,% Cumulative Permeability (n = 3) 15 min,"TR146 buccal cell line [2]; Famotidine […], 0.5 ml in donor, 15 min",7.81%
same,% Cumulative Permeability (n = 3) 20 min,"TR146 buccal cell line [2]; Famotidine […], 0.5 ml in donor, 20 min",11.76%
same,% Cumulative Permeability (n = 3) 30 min,"TR146 buccal cell line [2]; Famotidine […], 0.5 ml in donor, 30 min",19.98%
"CN1C(C(=O)Nc2ccccn2)=C(O)c2ccccc2S1(=O)=O [Sample 1PXM, Piroxicam]",pH,[7]; [13],5.30
same,Calculated % ionized,[8],61.31%
same,Calculated % unionized,[8],38.69%
same,% Cumulative Permeability (n = 3) 1 min,TR146 buccal cell line [5],0.08%
same,% Cumulative Permeability (n = 3) 2 min,TR146 buccal cell line [5],0.24%
same,% Cumulative Permeability (n = 3) 5 min,TR146 buccal cell line [5],0.96%
same,% Cumulative Permeability (n = 3) 15 min,TR146 buccal cell line [5],3.82%
same,% Cumulative Permeability (n = 3) 20 min,TR146 buccal cell line [5],5.89%
same,% Cumulative Permeability (n = 3) 30 min,TR146 buccal cell line [5],9.96%
"CN1C(C(=O)Nc2ccccn2)=C(O)c2ccccc2S1(=O)=O [Sample 3PXM, Piroxicam]",pH,[7]; [13],6.64
same,Calculated % ionized,[8],97.20%
same,Calculated % unionized,[8],2.80%
same,% Cumulative Permeability (n = 3) 1 min,TR146 buccal cell line [5],0.13%
same,% Cumulative Permeability (n = 3) 2 min,TR146 buccal cell line [5],0.41%
same,% Cumulative Permeability (n = 3) 5 min,TR146 buccal cell line [5],1.60%
same,% Cumulative Permeability (n = 3) 15 min,TR146 buccal cell line [5],5.88%
same,% Cumulative Permeability (n = 3) 20 min,TR146 buccal cell line [5],7.91%
same,% Cumulative Permeability (n = 3) 30 min,TR146 buccal cell line [5],11.24%
"CCCCCCCCCC(=O)O [capric acid, Capric acid]",effect on Piroxicam permeability vs control,TR146 buccal cell line [5]; [11],significantly reduced
"NCCCC[C@H](N)C(=O)O [lysine, Lysine]",pKa,[10],≥ 5
same,effect on Piroxicam permeability,TR146 buccal cell line [5]; 1:3 and 1:6 molar ratios Piroxicam to counterion,no significant enhancement
"C[C@H](CCC(=O)[O-])[C@H]1CC[C@H]2[C@@H]3[C@H](O)C[C@@H]4C[C@H](O)CC[C@]4(C)[C@H]3C[C@H](O)[C@]12C.O.[Na+] [sodium cholate hydrate, Sodium Cholate hydrate]",effect on permeability of Piroxicam in ODT,"TR146 buccal cell line [6]; […] w/w, 0.5×CMC in aqueous dispersion",only slightly increased
same,effect on Atenolol permeability vs control,TR146 buccal cell line [3],no statistical difference
same,fold increase in Carvedilol percentage cumulative permeability vs control,TR146 buccal cell line [4]; at/after 30 minutes,~2 fold
same,percentage cumulative permeability of Piroxicam,"TR146 buccal cell line [5]; agent at 1×CMC, at 30 minutes",39.52%
same,percentage cumulative permeability of Piroxicam,"TR146 buccal cell line [5]; agent at 2×CMC, at 30 minutes",14.44%
same,effect on Piroxicam permeability vs control,TR146 buccal cell line [5]; bile salt at 0.5 CMC,"slight, statistically non-significant increase"
same,fold increase in Piroxicam permeability vs control,"TR146 buccal cell line [5]; bile salt at 1 CMC, at 30 minutes",4 fold
same,effect on Piroxicam permeability vs control,"TR146 buccal cell line [5]; bile salt at 2 CMC, pH-adjusted using citric acid",slight and statistically non-significant
same,fold increase in Piroxicam percentage cumulative permeability,"TR146 buccal cell line [5]; bile salt at 2 CMC, at the first minute",1.5 fold
POE-(4)-sorbitan monolaurate [Tween 21],effect on Famotidine permeability vs control,TR146 buccal cell line [2],Neither PF127 nor Tween 21 showed an enhancement; also recorded: no increase in Famotidine permeability was observed
same,effect on Piroxicam permeability vs control,TR146 buccal cell line [5]; [11],increased
same,fold increase in Piroxicam percentage cumulative permeability vs control,TR146 buccal cell line [5]; [12],2.1 fold
same,percentage cumulative permeability of Piroxicam,TR146 buccal cell line [5]; [12],20.82%
Sorbitan monooleate [Span 80],fold increase in Famotidine permeability vs control,"TR146 buccal cell line [2]; 1:1 molar ratio, time not stated",2 fold
same,effect on Piroxicam permeability vs control,TR146 buccal cell line [5]; [11],reduce the Piroxicam permeability significantly
